Measured values from US20230000829A1, “COMPOSITION FOR SLEEP IMPROVEMENT COMPRISING ERGOTHIONEINE OR SALT THEREOF” (priority 2019, published 2023).
“Also recorded” adds a separate entry of the source.

Columns and labels:
Sprague-Dawley (SD) rat = test: Stress sleep disorder model, brain waves during sleep; assay type: in vivo; conditions: stress-induced rats, oral about 20 mg per 1 kg body weight per day
Procedure: The following method was used to induce stress in rats in an ergothioneine administration group (N=5) and a non-administration group (N=7). During the test period, the rats were kept under a 12-hour light-dark cycle. A Sprague-Dawley (SD) rat (8 weeks of age) was introduced into a cage where a larger and highly aggressive Brown-Norway (BN) rat was kept. These two rats were housed together for 10 minutes to make sure contact (direct contact) between the rats as the BN rat chasing after or hovering over the SD rat. Then, the SD rat and the BN rat were kept together for 24 hours in a breeding cage having compartments separated by a transparent perforated partition (indirect contact). Stress was induced in the SD rat in the same manner on the following day. A BM rat different from the one on the preceding day was used as a stressor. Stress was induced once a day for five consecutive days (from Monday to Friday), and then only indirect contact was allowed for two days on the weekend. This process was repeated for two cycles. Thus, stress induction under conditions combining direct contact and indirect contact was performed 10 times in total, and stress was induced for 12 days in total. The ergothioneine administration group was orally administered with L-ergothioneine from seven days before stress induction to the end of stress induction. L-ergothioneine was used in the form of an aqueous solution of L-ergothioneine dissolved in water (L-ergothioneine concentration: 0.25 mg/mL). The dosage of L-ergothioneine was about 20 mg per 1 kg body weight per day. The non-administration group was orally administered with water instead of the aqueous L-ergothioneine solution. The control (stress (−)) group (N=4) was orally administered with water without the stress induction. Electrodes were implanted in the rats to record brain waves, and brain waves during sleep and wakefulness were recorded for 24 hours after the end of stress induction. NREM sleep, REM sleep, and awake state were determined from the brain waves using biological signal analysis software Spike2 (available from CED), and the duration of episode of each of these states was calculated. Tukey's multiple comparisons test (*: p<0.05, **: p<0.005, ****: p<0.0001) was performed for significance testing.

[1] = system: male and female adults feeling stressed on a daily basis and dissatisfied with their sleep; test: Sleep quality evaluation test for humans (electroencephalograph SLEEPSCOPE); assay type: in vivo, human; conditions: 20 mg capsule daily for four weeks
Procedure: (§1) In order to examine a sleep improving effect such as a sleep quality-improving effect of a supplement containing ergothioneine, male and female adults feeling stressed on a daily basis and dissatisfied with their sleep (test food group: 46 subjects; control food group: 46 subjects; 92 subjects in total) were subjected to a placebo-controlled, randomized, double-blind, parallel-group comparative study in which one capsule containing 20 mg of L-ergothioneine (test food) or one capsule not containing L-ergothioneine (control food) was ingested daily for four weeks. The sleep quality and sleep duration were evaluated by measuring brain waves during sleep using an electroencephalograph “SLEEPSCOPE” (product name) available from SleepWell Co., Ltd. A 2-sample t-test (**: p<0.01, *: p<0.05, t: p<0.1, vs. control food group) was performed for significance testing between the groups.
Two types of food indistinguishable in terms of appearance, flavor, and the like were used for evaluation. • Test food: capsule containing a test substance (L-ergothioneine 20 mg) • Control food: capsule not containing a test substance
Each type of food for evaluation contained raw materials such as dextrin, hydroxypropyl cellulose, carrageenan, potassium chloride, and titanium oxide, in addition to the test substance. The control food was produced using the same raw materials used in the test food, except that the test substance (L-ergothioneine) was not added.
(§2) Brain waves during sleep were measured before the start of ingestion of the food for evaluation (pre-test) and after four weeks of ingestion of the food. The pre-test measurement of brain waves was regarded as “pre-examination”, and the measurement of brain waves after four weeks of ingestion of the food for evaluation was regarded as “week 4 examination”. The L-ergothioneine concentration (μM) in blood of each subject was also measured at the pre-examination and at the week 4 examination.
NREM sleep is divided into three stages 1 to 3 according to sleep depth by measuring brain waves using an electroencephalograph “SLEEPSCOPE” available from SleepWell Co., Ltd.
Ratio (%) of each sleep stage (NREM sleep stage 1, 2, or 3) to total sleep time; number of wake after sleep onset (frequency); number of wake after sleep onset in two hours before waking up (frequency), NREM sleep latency (min); 5 power in the first sleep cycle (delta power during NREM sleep in the first sleep cycle) (μV^2); and sleep efficiency (%).
FIGS. 4 to 19 show results of main evaluation items for sleep quality (ratio of total time of each sleep stage to total sleep time; number of wake after sleep onset; number of wake after sleep onset in two hours before waking up; NREM sleep latency; 5 (delta) power in the first sleep cycle, and sleep efficiency) and sleep duration, as determined by measuring brain waves. FIGS. 4 to 19 show the measured values and the amount of change between measurements at the pre-examination and at the week 4 examination (**: p<0.01, *: p<0.05, †: p<0.1, vs. control food group). The amount of change is a value obtained by subtracting the measured value at the pre-examination from the measured value at the week 4 examination (“measured value at week 4 examination”−“measured value at pre-examination”). The results shown in FIG. 4 to FIG. 20 are presented in means±standard error for each group. A 2-sample t-test (**: p<0.01, *: p<0.05, †: p<0.1, vs. control food group) was performed for significance testing between the groups. In FIG. 4, FIG. 5, FIG. 6, FIG. 8, FIG. 10, FIG. 12, FIG. 14, FIG. 16, FIG. 18, and FIG. 20, “Pre.” refers to the pre-examination, and “Post.” refers to the week 4 examination. The solid lines represent the test food group, and the dashed lines represent the control food group. In FIG. 7, FIG. 9, FIG. 11, FIG. 13, FIG. 15, FIG. 17, and FIG. 19, the black bars represent the test food group, and the white bars represent the control food group.

[2] = L-ergothioneine concentration in plasma of human subjects; assay type: in vivo; conditions: 20 mg capsule daily for four weeks, week 4 vs pre-examination and control food group, FIG. 20
Procedure: as §1, §2

[3] = light phase, vs non-administration group, FIG. 1

For `C[N+](C)(C)[C@@H](Cc1c[nH]c(=S)[nH]1)C(=O)[O-]` [L-ergothioneine], the “fragmentation in REM sleep (number of sleep fragmentation episodes)” value (Sprague-Dawley (SD) rat; light phase, FIG. 2) was “reduced fragmentation to a level comparable to that of the control group”, the “duration of episode of NREM sleep (NREM)” value (Sprague-Dawley (SD) rat; [3]) was “improved these phenomena to the level of the control group without stress induction” and the “duration of episode of REM sleep (REM)” value (Sprague-Dawley (SD) rat; [3]) was “improved these phenomena to the level of the control group without stress induction”. The “ratio of NREM sleep duration to total sleep time” value (Sprague-Dawley (SD) rat) was “increased the ratio of NREM sleep duration to total sleep time”, the “sleep latency (latency from the start of the light phase to the first episode of NREM sleep)” value (Sprague-Dawley (SD) rat; FIG. 3) was “to a level comparable to that of control group without stress induction; also recorded: exhibited an action to reduce an increase in sleep latency” and the “number and duration of wake after sleep onset” value [1] was “reduced the number and duration of wake after sleep onset”. The “ratio of NREM sleep duration (total of stages 1 to 3) to total sleep time” value ([1]; vs control food group) was “increased the ratio of NREM sleep duration to total sleep time”, the sleep latency ([1]; vs control food group) was “showed a reduced sleep latency, compared to the control food group” and the “ratio of NREM sleep stage 1 (N1) to total sleep time” value ([1]; vs control food group, FIG. 4, 7) was “significantly suppressed”. The “number of wake after sleep onset” value ([1]; vs control food group, FIG. 8, 9) was “significantly suppressed sleep fragmentation”, the “number of wake after sleep onset in two hours before waking up” value ([1]; vs control food group, FIG. 10, 11) was “significantly suppressed sleep fragmentation” and the “NREM sleep latency (time to reach deep sleep)” value ([1]; vs control food group, FIG. 12, 13) was “reduced an increase in time to reach deep sleep”. For the same molecule, the “5 power in the first sleep cycle” value ([1]; vs control food group, FIG. 14, 15) was “increased 5 power in the first sleep cycle”, the sleep efficiency ([1]; vs control food group, FIG. 16, 17) was “increased sleep efficiency” and the sleep duration ([1]; vs control food group, FIG. 18, 19) was “increased sleep duration”. The “L-ergothioneine concentration in plasma” value [2] was “increased the L-ergothioneine concentration in plasma”.
